System: hES cells
Assay: Cell survival assay, 24 hours (Example 2)
Assay type: cell-based, human
Protocol: Briefly, 96-well plates were coated by extracellular matrix proteins as described above and blocked by O3 medium containing bovine serum albumin. The ES cells were plated at cell density of 50,000 cells/cm^2 onto extracellular matrix-coated plates and left to adhere for 1 hour in a cell incubator. After that the plates were washed 3 times with the medium to remove the non-adherent cells, and then the adherent cells were fixed for 20 minutes by 5% glutaraldehyde, stained by 0.1% Crystal Violet. (Kebo Lab, Spanga, Sweden, http://www.kebolab.se). After one hour and 3 washes with water, Crystal Violet was extracted with 10% acetic acid and quantified by measuring optical density at 570 nm. All the experiments were performed in quadruplicate.
The survival assay was performed as described for the cell adhesion assay above, except that the cells were left in the cell incubator for 24 hours. For inhibition of survival assay, the cells were kept in a medium with function blocking antibodies at the concentrations recommended by the manufacturer or pathway inhibitors at concentrations indicated in the text for 30 minutes, and then plated on the coated dishes. All the experiments were performed in quadruplicate.
Pluripotent hES cells express α1, α5, β1, β2 and γ1 laminin chains. To compare the adhesion and clonal survival of hES cells plated from single cell suspension to different coating substrata, hES cells growing as monolayers on LN-511 or as clusters on a feeder layer were trypsinized into single cell suspension in O3 medium and plated on cell culture dishes coated with Matrigel, LN-111, LN-511, LN-521 or a mixture of LN-511 and LN-521, in the absence or presence of a ROCK inhibitor (Y-27632) and analyzed after 24 hours.

## LN-521: protein formed by joining α5, β2 and γ1 laminin chains; human recombinant, produced in HEK293 cells
40,000 cells per 1 cm^2, 10 μM Y-27632
  survival of Y-27632 treated human ES cells compared with Matrigel: survived better
O3 medium
  survival after 24 hours relative to LN-511: three times higher
  survival after 24 hours relative to Matrigel: approximately 20 times
O3 medium, absence of ROCK inhibitor
  survival of hES cells 24 hours after plating from single cell suspension: did so as single cells
Exogenous bFGF removed from the O3 medium
  survival relative to Matrigel without exogenous bFGF: 20 times
No bFGF, LiCl, GABA, pipecolic acid, TGFβ
  survival 24 hours after plating in medium lacking all growth factors of the TeSR1 formulation: survived
